# Source: ChEMBL document CHEMBL3885881, “DrugMatrix”
# Organism: Rattus norvegicus
# Test: DrugMatrix - Regimen: Daily Repeat
# Format: toxicity, organism-based, Sprague-Dawley
# Set-up: regimen Daily Repeat, gender Male, age 6-8 weeks
# Settings: in vivo, po, route oral GAVAGE, […]; for ABSOLUTE BASOPHIL / ABSOLUTE EOSINOPHIL / ABSOLUTE LYMPHOCYTE / ABSOLUTE MONOCYTE / ABSOLUTE SEGMENTED NEUTROPHIL / BASOPHIL / EOSINOPHIL / ERYTHROCYTE COUNT / HEMATOCRIT / HEMOGLOBIN / LEUKOCYTE COUNT / LYMPHOCYTE / MEAN CORPUSCULAR HEMOGLOBIN / MEAN CORPUSCULAR HEMOGLOBIN CONCENTRATION / MEAN CORPUSCULAR VOLUME / MONOCYTE / NEUTROPHIL / NUCLEATED RED BLOOD CELLS / PLATELET COUNT: tissue Blood; for ALANINE AMINOTRANSFERASE / ALBUMIN / ALKALINE PHOSPHATASE / ASPARTATE AMINOTRANSFERASE / BLOOD UREA NITROGEN / CARBON DIOXIDE / CHLORIDE / CHOLESTEROL / CREATINE PHOSPHOKINASE / CREATININE / GLUCOSE / LACTATE DEHYDROGENASE / LIPASE / PHOSPHORUS / POTASSIUM / SODIUM / TOTAL BILIRUBIN / TOTAL PROTEIN / URIC ACID: tissue Plasma
# [1] = 0 mg/kg, 72 h, dose level Control, time 3 day
# [2] = 0 mg/kg, 120 h, dose level Control, time 5 day
# [3] = 50 mg/kg, 72 h, dose level Low, time 3 day
compound,measurement,setting,value
COC(=O)Nc1nc2ccc(C(=O)c3ccccc3)cc2[nH]1 [MEBENDAZOLE],ABSOLUTE BASOPHIL,[1],0 CELLS/uL
same,ABSOLUTE EOSINOPHIL,[1],0 CELLS/uL
same,ABSOLUTE LYMPHOCYTE,[1],9244.83 CELLS/uL
same,ABSOLUTE MONOCYTE,[1],102 CELLS/uL
same,ABSOLUTE SEGMENTED NEUTROPHIL,[1],869.83 CELLS/uL
same,BASOPHIL,[1],0%
same,EOSINOPHIL,[1],0%
same,ERYTHROCYTE COUNT,[1],5.43 x10E6/uL
same,HEMATOCRIT,[1],34.03%
same,HEMOGLOBIN,[1],13.27 G/DL
same,LEUKOCYTE COUNT,[1],10.22 x10E3/uL
same,LYMPHOCYTE,[1],90.33%
same,MEAN CORPUSCULAR HEMOGLOBIN,[1],24.48 pg
same,MEAN CORPUSCULAR HEMOGLOBIN CONCENTRATION,[1],39.03 G/DL
same,MEAN CORPUSCULAR VOLUME,[1],62.75 fL
same,MONOCYTE,[1],1%
same,NEUTROPHIL,[1],8.67%
same,NUCLEATED RED BLOOD CELLS,[1],0.17 /100WBC
same,PLATELET COUNT,[1],989 x10E3/uL
same,ALANINE AMINOTRANSFERASE,[1],77 u/L
same,ALBUMIN,[1],3.97 G/DL
same,ALKALINE PHOSPHATASE,[1],464.83 u/L
same,ASPARTATE AMINOTRANSFERASE,[1],89.83 u/L
same,BLOOD UREA NITROGEN,[1],12.17 mg/dL
same,CARBON DIOXIDE,[1],34.17 mmol/L
same,CHLORIDE,[1],98.33 MEQ/L
same,CHOLESTEROL,[1],75.17 mg/dL
same,CREATINE PHOSPHOKINASE,[1],367.67 u/L
same,CREATININE,[1],0.16 mg/dL
same,GLUCOSE,[1],142.67 mg/dL
same,LACTATE DEHYDROGENASE,[1],139.33 u/L
same,LIPASE,[1],9.5 u/L
same,PHOSPHORUS,[1],10.85 mg/dL
same,POTASSIUM,[1],6.38 MEQ/L
same,SODIUM,[1],143.2 MEQ/L
same,TOTAL BILIRUBIN,[1],0.2 mg/dL
same,TOTAL PROTEIN,[1],5.77 G/DL
same,URIC ACID,[1],0.7 mg/dL
same,ABSOLUTE BASOPHIL,[2],0 CELLS/uL
same,ABSOLUTE EOSINOPHIL,[2],0 CELLS/uL
same,ABSOLUTE LYMPHOCYTE,[2],8295.33 CELLS/uL
same,ABSOLUTE MONOCYTE,[2],84.67 CELLS/uL
same,ABSOLUTE SEGMENTED NEUTROPHIL,[2],970 CELLS/uL
same,BASOPHIL,[2],0%
same,EOSINOPHIL,[2],0%
same,ERYTHROCYTE COUNT,[2],5.74 x10E6/uL
same,HEMATOCRIT,[2],36.22%
same,HEMOGLOBIN,[2],13.85 G/DL
same,LEUKOCYTE COUNT,[2],9.35 x10E3/uL
same,LYMPHOCYTE,[2],88.67%
same,MEAN CORPUSCULAR HEMOGLOBIN,[2],24.13 pg
same,MEAN CORPUSCULAR HEMOGLOBIN CONCENTRATION,[2],38.25 G/DL
same,MEAN CORPUSCULAR VOLUME,[2],63.08 fL
same,MONOCYTE,[2],1%
same,NEUTROPHIL,[2],10.33%
same,NUCLEATED RED BLOOD CELLS,[2],0.17 /100WBC
same,PLATELET COUNT,[2],883.83 x10E3/uL
same,ALANINE AMINOTRANSFERASE,[2],64.5 u/L
same,ALBUMIN,[2],4.12 G/DL
same,ALKALINE PHOSPHATASE,[2],425.67 u/L
same,ASPARTATE AMINOTRANSFERASE,[2],88.5 u/L
same,BLOOD UREA NITROGEN,[2],14.17 mg/dL
same,CARBON DIOXIDE,[2],30.5 mmol/L
same,CHLORIDE,[2],100.33 MEQ/L
same,CHOLESTEROL,[2],55.33 mg/dL
same,CREATINE PHOSPHOKINASE,[2],287.17 u/L
same,CREATININE,[2],0.2 mg/dL
same,GLUCOSE,[2],162.83 mg/dL
same,LACTATE DEHYDROGENASE,[2],111.33 u/L
same,LIPASE,[2],10.5 u/L
same,PHOSPHORUS,[2],10.32 mg/dL
same,POTASSIUM,[2],5.13 MEQ/L
same,SODIUM,[2],143.93 MEQ/L
same,TOTAL BILIRUBIN,[2],0.17 mg/dL
same,TOTAL PROTEIN,[2],5.9 G/DL
same,URIC ACID,[2],0.77 mg/dL
same,ABSOLUTE BASOPHIL,[3],0 CELLS/uL
same,ABSOLUTE EOSINOPHIL,[3],0 CELLS/uL
same,ABSOLUTE LYMPHOCYTE,[3],11176.67 CELLS/uL
same,ABSOLUTE MONOCYTE,[3],118.33 CELLS/uL
same,ABSOLUTE SEGMENTED NEUTROPHIL,[3],1305 CELLS/uL
same,BASOPHIL,[3],0%
same,EOSINOPHIL,[3],0%
same,ERYTHROCYTE COUNT,[3],5.06 x10E6/uL
same,HEMATOCRIT,[3],32%
same,HEMOGLOBIN,[3],12.6 G/DL
same,LEUKOCYTE COUNT,[3],12.6 x10E3/uL
same,LYMPHOCYTE,[3],89.33%
same,MEAN CORPUSCULAR HEMOGLOBIN,[3],24.93 pg
same,MEAN CORPUSCULAR HEMOGLOBIN CONCENTRATION,[3],39.43 G/DL
same,MEAN CORPUSCULAR VOLUME,[3],63.27 fL
same,MONOCYTE,[3],1%
same,NEUTROPHIL,[3],9.67%
same,NUCLEATED RED BLOOD CELLS,[3],0 /100WBC
same,PLATELET COUNT,[3],983 x10E3/uL
same,ALANINE AMINOTRANSFERASE,[3],78 u/L
same,ALBUMIN,[3],3.87 G/DL
same,ALKALINE PHOSPHATASE,[3],423.67 u/L
same,ASPARTATE AMINOTRANSFERASE,[3],86.33 u/L
same,BLOOD UREA NITROGEN,[3],12.33 mg/dL
same,CARBON DIOXIDE,[3],32 mmol/L
same,CHLORIDE,[3],100 MEQ/L
same,CHOLESTEROL,[3],74.67 mg/dL
same,CREATINE PHOSPHOKINASE,[3],274.33 u/L
same,CREATININE,[3],0.25 mg/dL
same,GLUCOSE,[3],142.67 mg/dL
same,LACTATE DEHYDROGENASE,[3],145 u/L
same,LIPASE,[3],11 u/L
same,PHOSPHORUS,[3],11.2 mg/dL
same,POTASSIUM,[3],5.98 MEQ/L
same,SODIUM,[3],144.33 MEQ/L
same,TOTAL BILIRUBIN,[3],0.17 mg/dL
same,TOTAL PROTEIN,[3],5.53 G/DL
same,URIC ACID,[3],0.77 mg/dL
